The subject of assay [1] is A2780 cells. As to the kind of experiment: In-Vitro Cell Proliferation Assay (SRB).
The target in assay [2] is NAMPT (Homo sapiens (Human), UniProt P43490). Briefly: Biochemical Inhibition Assay (NAMPT enzymatic reaction, NMN quantified by mass spectrometry). The following applies: 33 nM recombinant His-tagged NAMPT, 1 μM NAM, 30 min at rt. A digest of the protocol: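 His-tagged human NAMPT from E. coli preincubated 15 min at rt with compound in 50 mM Hepes pH 7.5, 50 mM NaCl, 5 mM MgCl2, 1 mM THP, then reacted 30 min at rt with 1 μM NAM, […] PRPP, 2.5 mM ATP. NMN quantified by RapidFire mass spectrometry, normalized to L-Cystathionine, background subtracted.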

Setting [3] is: Homo sapiens, A2780, 72 h, read-out: Cell Proliferation (IC50).
Setting [4] is: Homo sapiens, A2780, 72 h, read-out: Cell Proliferation (IC50), A2780 cells, 72 h, sulforhodamine B.

Like-named read-outs stand apart in the source and are kept apart here.

Chain of NAMPT (P43490 whole entry): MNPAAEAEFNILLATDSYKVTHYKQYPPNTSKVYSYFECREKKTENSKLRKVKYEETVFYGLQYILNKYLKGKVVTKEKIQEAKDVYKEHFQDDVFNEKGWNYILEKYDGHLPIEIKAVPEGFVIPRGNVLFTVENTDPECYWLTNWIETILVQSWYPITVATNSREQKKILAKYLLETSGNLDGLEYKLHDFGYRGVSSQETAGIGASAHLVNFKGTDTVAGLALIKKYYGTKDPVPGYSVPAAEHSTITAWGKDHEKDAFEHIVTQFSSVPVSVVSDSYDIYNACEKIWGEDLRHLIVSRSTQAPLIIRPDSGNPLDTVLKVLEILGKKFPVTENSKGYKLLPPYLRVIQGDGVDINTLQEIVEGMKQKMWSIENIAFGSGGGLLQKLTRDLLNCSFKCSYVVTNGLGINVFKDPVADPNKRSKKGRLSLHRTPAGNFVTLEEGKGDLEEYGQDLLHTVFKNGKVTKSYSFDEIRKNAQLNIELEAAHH

With `O=C(NCc1ccc(S(=O)(=O)c2cc(F)cc(F)c2)cn1)N1Cc2ccncc2C1` [Example 73, 1,3-Dihydro-pyrrolo[3,4-c]pyridine-2-carboxylic acid [5-(3,5-difluoro-benzenesulfonyl)-pyridin-2-ylmethyl]-amide], the IC50 in assay [1] (setting [3]) came to 76.5 nM; in assay [2], 17.3 nM.

For the compound `Nc1ncc2c(n1)CN(C(=O)NCc1ccc(S(=O)(=O)c3cc(F)cc(F)c3)cn1)C2` [Example 86, 2-Amino-5,7-dihydro-pyrrolo[3,4-d]pyrimidine-6-carboxylic acid [5-(3,5-difluoro-benzenesulfonyl)-pyridin-2-ylmethyl]-amide], the IC50 in assay [1] (setting [4]) is 2000 nM; in assay [2] it was 354 nM.

`O=C(NCc1ccc([S+]([O-])C2CCN(CC(F)(F)F)CC2)cn1)c1cc2ccncc2o1` (stereo not drawn) [Example 118, N-[[5-[[1-(2,2,2-trifluoroethyl)-4-piperidyl]sulfinyl]-2-pyridyl]rnethyl]furo[2,3-c]pyridine-2-carboxamide]: the IC50 came out at 12.2 nM in assay [1] (read-out: Cell Proliferation (IC50), A2780 cells, 72 h, sulforhodamine B) and 76.1 nM in assay [2].

As for `O=C(NCc1ccc(S(=O)(=O)c2cccc(C(F)(F)F)c2)cn1)c1ccc2nccn2c1` [Example 10, Imidazo[1,2-a]pyridine-6-carboxylic acid [5-(3-trifluoromethyl-benzenesulfonyl)-pyridin-2-ylmethyl]-amide], the IC50 in assay [1] (setting [4]) worked out at 8.3 nM; in assay [2], 12.7 nM.

Regarding `N#Cc1cncc(S(=O)(=O)c2ccc(CNC(=O)c3cc4ccncc4o3)nc2)c1` [Example 174, N-[[5-[(5-cyano-3-pyridyl)sulfonyl]-2-pyridyl]methyl]furo[2,3-c]pyridine-2-carboxamide], the IC50 in assay [1] (setting [3]) is 116 nM; in assay [2] it was 217 nM.

On to `O=C(NCc1ccc(S(=O)(=O)c2ccc(C(F)(F)F)nc2)cn1)c1cnc2[nH]ncc2c1` [Example 107, 1H-Pyrazolo[3,4-b]pyridine-5-carboxylic acid [5-(6-trifluoromethyl-pyridine-3-sulfonyl)-pyridin-2-ylmethyl]-amide], for which the IC50 is 1300 nM in assay [1] (setting [4]) and 731 nM in assay [2].

Take `COc1cc(OC)cc(S(=O)(=O)c2ccc(CNC(=O)c3cnc4[nH]ncc4c3)nc2)c1` [Example 139, N-[[5-(3,5-dimethoxyphenyl)sulfonyl-2-pyridyl]methyl]-1H-pyrazolo[3,4-b]pyridine-5-carboxamide]: the figures for the IC50 in assay [1] (setting [3]) and in assay [2] were 3.11 nM and 14.7 nM, respectively.

Take `O=C(NCc1ccc(S(=O)(=O)N2CCN(C3COC3)CC2)cn1)c1cc2ccncc2o1` [Example 141, N-[[5-[4-(oxetan-3-yl)piperazin-1-yl]sulfonyl-2-pyridyl]methyl]furo[2,3-c]pyridine-2-carboxamide]: the IC50 in assay [1] (setting [3]) stood at 71.7 nM; in assay [2], 207 nM.

Consider `CN(C)c1ccc(S(=O)(=O)c2ccc(CNC(=O)c3cnc4[nH]ncc4c3)nc2)cn1` [Example 84, 1H-Pyrazolo[3,4-b]pyridine-5-carboxylic acid [5-(6-dimethylamino-pyridine-3-sulfonyl)-pyridin-2-ylmethyl]-amide], for which the IC50 in assay [1] (setting [3]) was found to be 20.4 nM; in assay [2] it was 27.8 nM.

With `O=C(NCc1ccc(S(=O)(=O)c2cc(F)cc(F)c2)cn1)c1ccc2nccn2c1` [Example 4, Imidazo[1,2-a]pyridine-6-carboxylic acid [5-(3,5-difluoro-benzenesulfonyl)-pyridin-2-ylmethyl]-amide], the IC50 in assay [1] (setting [3]) was determined as 9.2 nM; in assay [2], 7.1 nM.

For `O=C(NCc1ccc(S(=O)(=O)c2cnc(N3CCOCC3)nc2)cn1)c1ccc2nccn2c1` [Example 167, N-[[5-(2-morpholinopyrimidin-5-yl)sulfonyl-2-pyridyl]methyl]imidazo[1,2-a]pyridine-6-carboxamide], the results for the IC50 in assay [1] (setting [3]) and in assay [2] were 6.7 nM and 23 nM, respectively.

In the case of `COc1cccc(S(=O)(=O)c2ccc(CNC(=O)c3cnc4[nH]ncc4c3)nc2)c1` [Example 34, 1H-Pyrazolo[3,4-b]pyridine-5-carboxylic acid [5-(3-methoxy-benzenesulfonyl)-pyridin-2-ylmethyl]-amide], the results for the IC50 in assay [1] (setting [3]) and in assay [2] were 104 nM and 59.9 nM, respectively.

The record behind these values is patent publication US9458172B2, “Pyridinyl and pyrimidinyl sulfoxide and sulfone derivatives” (priority 2012, dated 2016).
